In PubChem BioAssay (NCI):
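Interpolation was linear, between the two tested concentrations surrounding the appropriate level; five concentrations were tested over 48 hours in 96-well plates. The concentration for full growth arrest is given as TGI.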

What follows are compounds tested on NCI/ADR-RES ovarian (assay: growth of human tumour cells (NCI), 48 h).

Structure (SMILES)	TGI [µM]
C=CCN1C[C@H](C)N([C@H](c2ccc(C(=O)NC(CC)CC)cc2)c2cccc(OC)c2)C[C@H]1C	> 100
O=C1/C(=C\c2ccccc2)C(NC2CCCCC2)c2ccccc21 (stereo not drawn)	98.5

These compounds were tested on SW-620 colon (assay: growth of human tumour cells (NCI), 48 h).

Structure (SMILES)	TGI [µM]
Cc1c(C(=O)CC(=O)C(=O)Nc2ccccc2C(F)(F)F)[n+](=O)c2ccccc2n1[O-]	47
COc1ccccc1N1C(=O)C2c3[nH]c4ccccc4c3C3CCC(C(C)(C)C)CC3C2C1=O (stereo not drawn)	> 100
O=C1C=CC(=O)c2c1ccc1c3ccccc3n(CCCCCCCCCCCCn3c4ccccc4c4ccc5c(c43)C(=O)C=CC5=O)c21	> 100
CC1(C)OC(=O)N(c2ccccc2)C12C=Cc1cc([N+](=O)[O-])cc([N+](=O)[O-])c1O2 (stereo not drawn)	> 100
C=CCN1C[C@H](C)N([C@H](c2ccc(C(=O)NC(CC)CC)cc2)c2cccc(OC)c2)C[C@H]1C	> 100
CC(C)CCS(=O)(=O)OCCCCOS(=O)(=O)CCC(C)C	> 100
O=C1/C(=C\c2ccccc2)C(NC2CCCCC2)c2ccccc21 (stereo not drawn)	2.12

The compounds below were run on DU-145 prostate (assay: growth of human tumour cells (NCI), 48 h).

Structure (SMILES)	TGI [µM]
O=C1C=CC(=O)c2c1ccc1c3ccccc3n(CCCCCCCCCCCCn3c4ccccc4c4ccc5c(c43)C(=O)C=CC5=O)c21	> 100
CC1(C)OC(=O)N(c2ccccc2)C12C=Cc1cc([N+](=O)[O-])cc([N+](=O)[O-])c1O2 (stereo not drawn)	> 100
C=CCN1C[C@H](C)N([C@H](c2ccc(C(=O)NC(CC)CC)cc2)c2cccc(OC)c2)C[C@H]1C	> 100
O=C1/C(=C\c2ccccc2)C(NC2CCCCC2)c2ccccc21 (stereo not drawn)	3.09

These compounds were tested on PC-3 prostate (assay: growth of human tumour cells (NCI), 48 h).

Structure (SMILES)	TGI [µM]
O=C1C=CC(=O)c2c1ccc1c3ccccc3n(CCCCCCCCCCCCn3c4ccccc4c4ccc5c(c43)C(=O)C=CC5=O)c21	> 100
CC1(C)OC(=O)N(c2ccccc2)C12C=Cc1cc([N+](=O)[O-])cc([N+](=O)[O-])c1O2 (stereo not drawn)	> 100
C=CCN1C[C@H](C)N([C@H](c2ccc(C(=O)NC(CC)CC)cc2)c2cccc(OC)c2)C[C@H]1C	> 100
O=C1/C(=C\c2ccccc2)C(NC2CCCCC2)c2ccccc21 (stereo not drawn)	3.78

Each compound was assayed on RPMI-8226 leukemia (assay: growth of human tumour cells (NCI), 48 h).

Structure (SMILES)	TGI [µM]
Cc1c(C(=O)CC(=O)C(=O)Nc2ccccc2C(F)(F)F)[n+](=O)c2ccccc2n1[O-]	24.2
COc1ccccc1N1C(=O)C2c3[nH]c4ccccc4c3C3CCC(C(C)(C)C)CC3C2C1=O (stereo not drawn)	> 100
O=C1C=CC(=O)c2c1ccc1c3ccccc3n(CCCCCCCCCCCCn3c4ccccc4c4ccc5c(c43)C(=O)C=CC5=O)c21	> 100
CC1(C)OC(=O)N(c2ccccc2)C12C=Cc1cc([N+](=O)[O-])cc([N+](=O)[O-])c1O2 (stereo not drawn)	> 100
CC(C)CCS(=O)(=O)OCCCCOS(=O)(=O)CCC(C)C	> 100
O=C1/C(=C\c2ccccc2)C(NC2CCCCC2)c2ccccc21 (stereo not drawn)	2.42

The compounds below were run on MDA-MB-231 breast (assay: growth of human tumour cells (NCI), 48 h).

Structure (SMILES)	TGI [µM]
O=C1C=CC(=O)c2c1ccc1c3ccccc3n(CCCCCCCCCCCCn3c4ccccc4c4ccc5c(c43)C(=O)C=CC5=O)c21	> 100
CC1(C)OC(=O)N(c2ccccc2)C12C=Cc1cc([N+](=O)[O-])cc([N+](=O)[O-])c1O2 (stereo not drawn)	> 100
C=CCN1C[C@H](C)N([C@H](c2ccc(C(=O)NC(CC)CC)cc2)c2cccc(OC)c2)C[C@H]1C	75.6
O=C1/C(=C\c2ccccc2)C(NC2CCCCC2)c2ccccc21 (stereo not drawn)	5.2

Each compound was assayed on SK-OV-3 ovarian (assay: growth of human tumour cells (NCI), 48 h).

Structure (SMILES)	TGI [µM]
Cc1c(C(=O)CC(=O)C(=O)Nc2ccccc2C(F)(F)F)[n+](=O)c2ccccc2n1[O-]	> 100
COc1ccccc1N1C(=O)C2c3[nH]c4ccccc4c3C3CCC(C(C)(C)C)CC3C2C1=O (stereo not drawn)	> 100
O=C1C=CC(=O)c2c1ccc1c3ccccc3n(CCCCCCCCCCCCn3c4ccccc4c4ccc5c(c43)C(=O)C=CC5=O)c21	> 100
CC1(C)OC(=O)N(c2ccccc2)C12C=Cc1cc([N+](=O)[O-])cc([N+](=O)[O-])c1O2 (stereo not drawn)	> 100
C=CCN1C[C@H](C)N([C@H](c2ccc(C(=O)NC(CC)CC)cc2)c2cccc(OC)c2)C[C@H]1C	> 100
CC(C)CCS(=O)(=O)OCCCCOS(=O)(=O)CCC(C)C	> 100
O=C1/C(=C\c2ccccc2)C(NC2CCCCC2)c2ccccc21 (stereo not drawn)	27

These compounds were tested on HCT-116 colon (assay: growth of human tumour cells (NCI), 48 h).

Structure (SMILES)	TGI [µM]
Cc1c(C(=O)CC(=O)C(=O)Nc2ccccc2C(F)(F)F)[n+](=O)c2ccccc2n1[O-]	28.3
COc1ccccc1N1C(=O)C2c3[nH]c4ccccc4c3C3CCC(C(C)(C)C)CC3C2C1=O (stereo not drawn)	> 100
O=C1C=CC(=O)c2c1ccc1c3ccccc3n(CCCCCCCCCCCCn3c4ccccc4c4ccc5c(c43)C(=O)C=CC5=O)c21	> 100
CC1(C)OC(=O)N(c2ccccc2)C12C=Cc1cc([N+](=O)[O-])cc([N+](=O)[O-])c1O2 (stereo not drawn)	> 100
C=CCN1C[C@H](C)N([C@H](c2ccc(C(=O)NC(CC)CC)cc2)c2cccc(OC)c2)C[C@H]1C	> 100
CC(C)CCS(=O)(=O)OCCCCOS(=O)(=O)CCC(C)C	> 100
O=C1/C(=C\c2ccccc2)C(NC2CCCCC2)c2ccccc21 (stereo not drawn)	2.44

What follows are compounds tested on SNB-19 CNS (assay: growth of human tumour cells (NCI), 48 h).

Structure (SMILES)	TGI [µM]
Cc1c(C(=O)CC(=O)C(=O)Nc2ccccc2C(F)(F)F)[n+](=O)c2ccccc2n1[O-]	> 100
COc1ccccc1N1C(=O)C2c3[nH]c4ccccc4c3C3CCC(C(C)(C)C)CC3C2C1=O (stereo not drawn)	> 100
O=C1C=CC(=O)c2c1ccc1c3ccccc3n(CCCCCCCCCCCCn3c4ccccc4c4ccc5c(c43)C(=O)C=CC5=O)c21	> 100
CC1(C)OC(=O)N(c2ccccc2)C12C=Cc1cc([N+](=O)[O-])cc([N+](=O)[O-])c1O2 (stereo not drawn)	> 100
C=CCN1C[C@H](C)N([C@H](c2ccc(C(=O)NC(CC)CC)cc2)c2cccc(OC)c2)C[C@H]1C	> 100
CC(C)CCS(=O)(=O)OCCCCOS(=O)(=O)CCC(C)C	> 100
O=C1/C(=C\c2ccccc2)C(NC2CCCCC2)c2ccccc21 (stereo not drawn)	22.5
